Reference: patent publication US10919941B2, “Functional lipid constructs” (KODE BIOTECH LIMITED, priority 2007, dated 2021)
No end group written: not given here.

Tests used:
[1] = system: TAP1 serum (Taiwan Miltenberger antibody positive sample); experiment: Anti-MUT serum (TAP1) reactivity of modified RBCs (saline and AHG); format: cell-based, human; parameters: key: 0 or ‘−’ no agglutination; 0 or ‘−’ no agglutination; 1+ or 3=very weak agglutination; 1+ or 3=very weak agglutination; 2+ or 5=weak agglutination; 2+ or 5=weak agglutination; 3+ or 8=moderate strong agglutination; 3+ or 8=moderate strong agglutination; 4+ or 10/12=strong agglutination; 4+ or 10/12=strong agglutination; 4+ or 10/12=strong agglutination
Method: (§1) The suspensions are either: • 1. incubated for 2 hours at 37° C. before being washed and suspended in a cell medium for serological analysis at a concentration of 0.8 to 3% (Method 1); or • 2. incubated for 3 to 4 hours at room temperature (circa 25° C.) followed by 18 hours at 4° C. before being washed and suspended in a cell medium for serological analysis at a concentration of 0.8 to 3% (Method 2).
(§2) Serological reactions are graded or scored by either of two established systems (0 or ‘−’ no agglutination, 1+ or 3=very weak agglutination, 2+ or 5=weak agglutination, 3+ or 8=moderate strong agglutination, 4+ or 10/12=strong agglutination)

[2] = system: Miltenberger antibody positive sera; experiment: BioVue AHG card column agglutination serology of modified red blood cells; format: cell-based, human; parameters: key: 0 or ‘−’ no agglutination; 0 or ‘−’ no agglutination; 1+ or 3=very weak agglutination; 1+ or 3=very weak agglutination; 2+ or 5=weak agglutination; 2+ or 5=weak agglutination; 3+ or 8=moderate strong agglutination; 3+ or 8=moderate strong agglutination; 4+ or 10/12=strong agglutination; 4+ or 10/12=strong agglutination; 4+ or 10/12=strong agglutination; details: construct 50 μg/ml
Method: (§3) Red blood cells are modified by mixing 1 part by volume of washed packed red blood cells with 1 part by volume of peptide-lipid construct dispersed at a concentration of 10 to 1000 pg/ml in cell media (Celpresol™).
as §1, §2
(§4) Serological platforms used are Tube (addition of reagents and reactants into plastic or glass serology tubes and after appropriate incubations, washing and centrifugation observing reactions macroscopically by eye and a 10× magnification eyepiece and scoring) and BioVue™ (addition of reactants into cassettes containing beads (including some reactants) and after appropriate incubations and centrifugation observing the reaction patterns trapped within the Gel matrix). BioVue is the serological column agglutination platform of Ortho-Clinical Diagnostics. Diamed is the serological column agglutination platform of Diamed AG.

[3] = system: Miltenberger Antibody Positive Panel; experiment: Reactivity of modified RBCs against the Miltenberger Antibody Positive Panel; format: cell-based, human; parameters: key to score vs panel 15 TAP2 / score vs panel 4 T7202 / score vs panel 8 T5896 / score vs panel 2 T217 / score vs panel 3 T165 / score vs panel 14 TAP1 / score vs panel 10 Mia / score vs panel 11 Mur / score vs panel 12 Gam / score vs panel 6 T6025 / score vs panel 7 T8445 / score vs panel 9 MIII / score vs panel 13 BoxH / reactivity with Panel Serum #7 (T8445) / agglutination score, Panel Serum #7 (T8445): 0 or ‘−’ no agglutination; 0 or ‘−’ no agglutination; 1+ or 3=very weak agglutination; 1+ or 3=very weak agglutination; 2+ or 5=weak agglutination; 2+ or 5=weak agglutination; 3+ or 8=moderate strong agglutination; 3+ or 8=moderate strong agglutination; 4+ or 10/12=strong agglutination; 4+ or 10/12=strong agglutination; 4+ or 10/12=strong agglutination
Method: as §3, §1, §2, §4

[4] = system: natural Mi III antibody reactive human serums; experiment: Positive serum reactivity of modified RBCs in the field; format: cell-based; parameters: key: 0 or ‘−’ no agglutination; 0 or ‘−’ no agglutination; 1+ or 3=very weak agglutination; 1+ or 3=very weak agglutination; 2+ or 5=weak agglutination; 2+ or 5=weak agglutination; 3+ or 8=moderate strong agglutination; 3+ or 8=moderate strong agglutination; 4+ or 10/12=strong agglutination; 4+ or 10/12=strong agglutination; 4+ or 10/12=strong agglutination; details: 22 at 50, 17 and 24 at 200 μg/ml; 3 h RT then 18 h 4° C.
Method: as §1, §2

antibody negative serums = experiment: False positive reactions of modified RBCs with antibody negative serums/plasma; format: cell-based, human; parameters: key to Reaction score BioVue AHG, PAC samples 1-46, 49, 50, 52, 53 / Reaction score BioVue AHG, PAC sample 47 / Reaction score BioVue AHG, PAC sample 48 / Reaction score BioVue AHG, PAC sample 51 / agglutination score, T series serum 2 / agglutination score, T series serum 42 / agglutination score, T series serum 63 / agglutination score, T series serum 62 / agglutination score, T series serum 7 / agglutination score, T series serum 20 / agglutination score, T series serum 48 / agglutination score, T series serum 22 / agglutination score, T series serum 39 / agglutination score, T series serum 23 / agglutination score, T series serum 30 / agglutination score, T series serum 4 / agglutination score, T series serum 31 / agglutination score, T series serum 44 / agglutination score, T series serum 61 / agglutination score, T series serum 18 / agglutination score, T series serum 21 / agglutination score, T series serum 28 / agglutination score, T series serum 55 / agglutination score, false positive serum T18 / agglutination score, false positive serum T21 / agglutination score, false positive serum T28 / agglutination score, false positive serum T55 / agglutination score, false positive serum T78 / agglutination score, false positive serum T92: 0 or ‘−’ no agglutination; 0 or ‘−’ no agglutination; 1+ or 3=very weak agglutination; 1+ or 3=very weak agglutination; 2+ or 5=weak agglutination; 2+ or 5=weak agglutination; 3+ or 8=moderate strong agglutination; 3+ or 8=moderate strong agglutination; 4+ or 10/12=strong agglutination; 4+ or 10/12=strong agglutination; 4+ or 10/12=strong agglutination
[5] = construct 50 μg/ml (2 hours, 37° C.)
[6] = cells modified at 50 μg/ml, 2 hour 37° C., BioVue AHG cards
[7] = larger series = 102, cells modified at 50 μg/ml, 2 hour 37° C., BioVue AHG cards

M33: DOPE peptide-lipid construct: MUTK peptide QTNDKHKRDTY, leader c, spacer CMG(2) (QTNDKHKRDTYC; also: DOPE peptide-lipid construct via leader Cys, spacer CMG(2))
Reactivity with anti-MUT serum TAP1 [1, 5]: 3 | BioVue score vs TAP1 [2]: 3 | BioVue score vs positive sample 2 T217 (T) [2]: 0 | BioVue score vs positive sample 3 T165 (Mur) [2]: 0 | BioVue score vs positive sample 4 T7202 (M) [2]: 0 | BioVue score vs positive sample 8 T5896 (M + K + Mur) [2]: 0 | score vs panel 2 T217 ([3]; Table 8, construct 50 μg/ml): 0 | score vs panel 3 T165 ([3]; Table 8, construct 50 μg/ml): 0 | score vs panel 4 T7202 ([3]; Table 8, construct 50 μg/ml): 0 | score vs panel 8 T5896 ([3]; Table 8, construct 50 μg/ml): 0 | score vs panel 14 TAP1 ([3]; Table 8, construct 50 μg/ml): 8 | score vs panel 15 TAP2 ([3]; Table 8, construct 50 μg/ml): 0

M17: DOPE peptide-lipid construct: Mur peptide TYPAHTANEV, leader c, spacer CMG(2) (TYPAHTANEVC; also: DOPE peptide-lipid construct via leader Cys, spacer CMG(2))
TAP 1 Serum, AHG score ([1]; construct 50 μg/ml): 0 | TAP 1 Serum, Saline score ([1]; construct 50 μg/ml): 0 | score vs panel 2 T217 ([3]; Table 9, construct 100 μg/ml): 0 | score vs panel 3 T165 ([3]; Table 9, construct 100 μg/ml): 10 | score vs panel 4 T7202 ([3]; Table 9, construct 100 μg/ml): 8 | score vs panel 6 T6025 ([3]; Table 9, construct 100 μg/ml): 10 | score vs panel 7 T8445 ([3]; Table 9, construct 100 μg/ml): 10 | score vs panel 8 T5896 ([3]; Table 9, construct 100 μg/ml): 0 | score vs panel 9 MIII ([3]; Table 9, construct 100 μg/ml): 0 | score vs panel 10 Mia ([3]; Table 9, construct 100 μg/ml): 0 | score vs panel 11 Mur ([3]; Table 9, construct 100 μg/ml): 0 | score vs panel 12 Gam ([3]; Table 9, construct 100 μg/ml): 0 | score vs panel 15 TAP2 ([3]; Table 9, construct 100 μg/ml): 0 | agglutination score, Panel Serum #7 (T8445) [3, 6]: 10 | reactivity with Panel Serum #7 (T8445) [3, 5]: 10 | score vs Mi III reactive serum 912485657-9 [4]: 3 | score vs Mi III reactive serum 914146821-8 [4]: 10 | score vs Mi III reactive serum 922390844-5 [4]: 12 | score vs Mi III reactive serum 926190919-0 [4]: 3 | score vs Mi III reactive serum 926555294-1 [4]: 0 | score vs Mi III reactive serum 927175131-4 [4]: 0 | score vs Mi III reactive serum 927299700-1 [4]: 0 | score vs Mi III reactive serum 927516053-2 [4]: 0 | score vs Mi III reactive serum 927619701-8 [4]: 3 | score vs Mi III reactive serum 932360876-4 [4]: 0 | score vs Mi III reactive serum 932467774-5 [4]: 0 | score vs Mi III reactive serum 932809044-1 [4]: 8 | score vs Mi III reactive serum 942223755-1 [4]: 5 | score vs Mi III reactive serum 942404708-4 (row interpreted Mur) [4]: 5 | score vs Mi III reactive serum 942404708-4 (row interpreted other) [4]: 0 | score vs Mi III reactive serum 942421413-0 [4]: 5 | score vs Mi III reactive serum 942423002-4 [4]: 0 | score vs Mi III reactive serum 942433813-3 [4]: 8 | score vs Mi III reactive serum 942433855-3 [4]: 8 | score vs Mi III reactive serum 942442720-2 [4]: 5 | score vs Mi III reactive serum 942448627-8 [4]: 0 | score vs Mi III reactive serum 942753165-4 [4]: 8 | score vs Mi III reactive serum 942762589-1 [4]: 0 | score vs Mi III reactive serum 9322338631 [4]: 10 | score vs Mi III reactive serum 9325490091 [4]: 5 | score vs Mi III reactive serum 9327986660 [4]: 3 | score vs Mi III reactive serum 9328118428 [4]: 10 | score vs Mi III reactive serum 9328154853 [4]: 10 | score vs Mi III reactive serum 9328791834 [4]: 3 | score vs Mi III reactive serum 9424248012 [4]: 0 | score vs Mi III reactive serum 9424292604 [4]: 8 | score vs Mi III reactive serum 9424396133 [4]: 0 | score vs Mi III reactive serum 9425256505 [4]: 8 | score vs Mi III reactive serum 9427455417 [4]: 5 | score vs Mi III reactive serum 9427613497 [4]: 0 | score vs Mi III reactive serum 9427615156 [4]: 0 | score vs Mi III reactive serum S-3 [4]: 3 | % positive (antibody negative serums; T series reactives (n = 58), BioVue AHG cards): 33% | agglutination score, T series serum 2 (antibody negative serums; [6]): 10 | agglutination score, T series serum 4 (antibody negative serums; [6]): 8 | agglutination score, T series serum 7 (antibody negative serums; [6]): 8 | agglutination score, T series serum 18 (antibody negative serums; [6]): 12 | agglutination score, T series serum 20 (antibody negative serums; [6]): 8 | agglutination score, T series serum 21 (antibody negative serums; [6]): 12 | agglutination score, T series serum 22 (antibody negative serums; [6]): 8 | agglutination score, T series serum 23 (antibody negative serums; [6]): 3 | agglutination score, T series serum 28 (antibody negative serums; [6]): 12 | agglutination score, T series serum 30 (antibody negative serums; [6]): 3 | agglutination score, T series serum 31 (antibody negative serums; [6]): 8 | agglutination score, T series serum 39 (antibody negative serums; [6]): 5 | agglutination score, T series serum 42 (antibody negative serums; [6]): 10 | agglutination score, T series serum 44 (antibody negative serums; [6]): 10 | agglutination score, T series serum 48 (antibody negative serums; [6]): 8 | agglutination score, T series serum 55 (antibody negative serums; [6]): 12 | agglutination score, T series serum 61 (antibody negative serums; [6]): 10 | agglutination score, T series serum 62 (antibody negative serums; [6]): 8 | agglutination score, T series serum 63 (antibody negative serums; [6]): 10 | agglutination score, false positive serum T18 (antibody negative serums; [7]): 12 | agglutination score, false positive serum T21 (antibody negative serums; [7]): 12 | agglutination score, false positive serum T28 (antibody negative serums; [7]): 12 | agglutination score, false positive serum T55 (antibody negative serums; [7]): 12 | agglutination score, false positive serum T78 (antibody negative serums; [7]): 12 | agglutination score, false positive serum T92 (antibody negative serums; [7]): 12 | number of negative serums with score 0 (antibody negative serums; n = 102 negative serum samples): 65 | number of negative serums with score 3 (antibody negative serums; n = 102 negative serum samples): 3 | number of negative serums with score 8-5 (antibody negative serums; n = 102 negative serum samples): 18 | number of negative serums with score 12-10 (antibody negative serums; n = 102 negative serum samples): 17 | share of negative serums with score 0 (antibody negative serums; n = 102 negative serum samples): 64% | share of negative serums with score 3 (antibody negative serums; n = 102 negative serum samples): 3% | share of negative serums with score 8-5 (antibody negative serums; n = 102 negative serum samples): 18% | share of negative serums with score 12-10 (antibody negative serums; n = 102 negative serum samples): 17%
